Test results reported in PMC3509269 (The Analyst, 2012).

Tested on: Calf thymus DNA
Assay type: biochemical
Settings: 0.2 mM, negative control, under the assay conditions (Fig. S8)

SMILES: C1CCOC1 [THF]
- SWV peak increases (DNA damage signal): did not show SWV peak increases
